Measured values as given in BindingDB's records for doi:10.1021/jm00024a010 (Boehringer Ingelheim Pharmaceuticals, 1995).

Assays:
[1] = target: T1, Gag-Pol polyprotein [600-1027,Y780C]/[600-1155,Y780C] (Human immunodeficiency virus 1, UniProt P03366, Y780C); assay: HIV-1 RT Assay
T1 construct: 600-1027; 600-1155

[2] = target: T2, Gag-Pol polyprotein [600-1027,R876K]/[600-1155] (Human immunodeficiency virus 1, UniProt P03366, R876K); assay: HIV-1 RT Assay
T2 construct: 600-1027; 600-1155

Compound	IC50 [1]	IC50 [2]	further results
CCN1c2ncccc2C(=O)Nc2c(C)cc(N3CCSCC3)nc21 [2-ethyl-7-methyl-5-(thiomorpholin-4-yl)-2,4,9,15-tetraazatricyclo[9.4.0.0^{3,8}]pentadeca-1(11),3,5,7,12,14-hexaen-10-one]	> 1000 nM	–	–
CCN1c2ncccc2C(=O)Nc2c(C)cc(C(C)C)nc21 [2-ethyl-7-methyl-5-(propan-2-yl)-2,4,9,15-tetraazatricyclo[9.4.0.0^{3,8}]pentadeca-1(11),3,5,7,12,14-hexaen-10-one]	–	–	IC50 ([1]; pH 7.8, 25 °C): > 1000 nM
CCN1c2ncccc2C(=O)N(C)c2ccc(N3CCCCC3)nc21 [2-ethyl-9-methyl-5-(piperidin-1-yl)-2,4,9,15-tetraazatricyclo[9.4.0.0^{3,8}]pentadeca-1(11),3,5,7,12,14-hexaen-10-one]	> 1000 nM	–	–
CCN1c2ncccc2C(=O)Nc2c(C)cc(N(C)CCO)nc21 [2-ethyl-5-[(2-hydroxyethyl)(methyl)amino]-7-methyl-2,4,9,15-tetraazatricyclo[9.4.0.0^{3,8}]pentadeca-1(11),3,5,7,12,14-hexaen-10-one]	> 1000 nM	–	–
CCN1c2ncccc2C(=O)Nc2c(C)cc(SC)nc21 [2-ethyl-7-methyl-5-(methylsulfanyl)-2,4,9,15-tetraazatricyclo[9.4.0.0^{3,8}]pentadeca-1(11),3,5,7,12,14-hexaen-10-one]	> 1000 nM	–	–
CCN1c2ncccc2C(=O)N(C)c2ccc(N)nc21 [5-amino-2-ethyl-9-methyl-2,4,9,15-tetraazatricyclo[9.4.0.0^{3,8}]pentadeca-1(11),3,5,7,12,14-hexaen-10-one]	> 1000 nM	> 1000 nM	–
CCN1c2ncccc2C(=O)N(C)c2ccc(-c3ccccn3)nc21 [2-ethyl-9-methyl-5-(pyridin-2-yl)-2,4,9,15-tetraazatricyclo[9.4.0.0^{3,8}]pentadeca-1(11),3,5,7,12,14-hexaen-10-one]	–	180 nM	–
CCN1c2ncccc2C(=O)Nc2c(C)cc(NCCCO)nc21 [2-ethyl-5-[(3-hydroxypropyl)amino]-7-methyl-2,4,9,15-tetraazatricyclo[9.4.0.0^{3,8}]pentadeca-1(11),3,5,7,12,14-hexaen-10-one]	> 1000 nM	–	–
CN1C(=O)c2cccnc2N(C2CC2)c2nc(Cl)ccc21 [5-chloro-2-cyclopropyl-9-methyl-2,4,9,15-tetraazatricyclo[9.4.0.0^{3,8}]pentadeca-1(11),3,5,7,12,14-hexaen-10-one]	–	–	IC50 ([2]; pH 7.8, 25 °C): 90 nM
CCN1c2ncccc2C(=O)N(C)c2ccc(-c3ccsc3)nc21 [2-ethyl-9-methyl-5-(thiophen-3-yl)-2,4,9,15-tetraazatricyclo[9.4.0.0^{3,8}]pentadeca-1(11),3,5,7,12,14-hexaen-10-one]	–	100 nM	–
CCN1c2ncccc2C(=O)N(C)c2ccc(-c3cccc(O)c3)nc21 [2-ethyl-5-(3-hydroxyphenyl)-9-methyl-2,4,9,15-tetraazatricyclo[9.4.0.0^{3,8}]pentadeca-1(11),3,5,7,12,14-hexaen-10-one]	–	100 nM	–
CCN1c2ncccc2C(=O)Nc2c(C)cc(C)nc21 [2-ethyl-5,7-dimethyl-2,4,9,15-tetraazatricyclo[9.4.0.0^{3,8}]pentadeca-1(11),3,5,7,12,14-hexaen-10-one]	–	–	IC50 ([1]; pH 7.8, 25 °C): > 1000 nM
CCN1c2ncccc2C(=O)N(C)c2ccc(=O)[nH]c21 [2-ethyl-5-hydroxy-9-methyl-2,4,9,15-tetraazatricyclo[9.4.0.0^{3,8}]pentadeca-1(11),3,5,7,12,14-hexaen-10-one]	> 1000 nM	–	–
CCN1c2ncccc2C(=O)N(C)c2ccc(-c3cccc(N)c3)nc21 [5,11-dihydro-11-ethyl-5-methyl-2-(3-aminophenyl)-6H-dipyrido[3,2-b:2 ,3-e][1,4]diazepin-6-one]	–	70 nM	–
CCN1c2ncccc2C(=O)N(C)c2ccc(-c3ncco3)nc21 [2-ethyl-9-methyl-5-(1,3-oxazol-2-yl)-2,4,9,15-tetraazatricyclo[9.4.0.0^{3,8}]pentadeca-1(11),3,5,7,12,14-hexaen-10-one]	560 nM	110 nM	–
CCC=Nc1ccc2c(n1)N(CC)c1ncccc1C(=O)N2C	> 1000 nM	390 nM	–
CCN1c2ncccc2C(=O)Nc2c(C)cc(NCCO)nc21 [2-ethyl-5-[(2-hydroxyethyl)amino]-7-methyl-2,4,9,15-tetraazatricyclo[9.4.0.0^{3,8}]pentadeca-1(11),3,5,7,12,14-hexaen-10-one]	> 1000 nM	–	–
CCN1c2ncccc2C(=O)N(C)c2ccc(-c3cnco3)nc21 [2-ethyl-9-methyl-5-(1,3-oxazol-5-yl)-2,4,9,15-tetraazatricyclo[9.4.0.0^{3,8}]pentadeca-1(11),3,5,7,12,14-hexaen-10-one]	820 nM	220 nM	–
CCN1c2ncccc2C(=O)N(C)c2cccnc21	–	–	IC50 ([2]; pH 7.8, 25 °C): 130 nM
CCN1c2ncccc2C(=O)Nc2c(C)cc(C(C)(C)C)nc21 [5-tert-butyl-2-ethyl-7-methyl-2,4,9,15-tetraazatricyclo[9.4.0.0^{3,8}]pentadeca-1(11),3,5,7,12,14-hexaen-10-one]	–	–	IC50 ([2]; pH 7.8, 25 °C): > 1000 nM; IC50 ([1]; pH 7.8, 25 °C): > 1000 nM
CCN1c2ncccc2C(=O)N(C)c2ccc(-c3cncs3)nc21 [2-ethyl-9-methyl-5-(1,3-thiazol-5-yl)-2,4,9,15-tetraazatricyclo[9.4.0.0^{3,8}]pentadeca-1(11),3,5,7,12,14-hexaen-10-one]	240 nM	100 nM	–
CCN1c2ncccc2C(=O)N(C)c2ccc(-c3nccs3)nc21 [5,11-dihydro-11-ethyl-5-methyl-2-(2-thiazolyl)-6H-dipyrido[3,2-b:2 ,3-e][1,4]diazepin-6-one]	1100 nM	380 nM	–
